In assay [1] the target is cGMP-dependent protein kinase 1 (Homo sapiens, UniProt Q13976). Format: functional.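 Note: value from a kinome panel screen with PRKG1 as the panel member.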
For assay [2], the target named is ALK tyrosine kinase receptor (Homo sapiens, UniProt Q9UM73). Type of assay: functional.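 Note: ALK tested as one member of a kinase panel screen.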
Assay [3] addresses Calcium/calmodulin-dependent protein kinase type II subunit gamma (Homo sapiens, UniProt Q13555). Type of assay: functional.
In assay [4] the target is Tyrosine-protein kinase ITK/TSK (Homo sapiens, UniProt Q08881). Type of assay: functional.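 Note: affinity for ITK measured as one member of a broad kinase panel profiling binding across the kinome.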
In assay [5] the target is Receptor tyrosine-protein kinase erbB-2 (Homo sapiens, UniProt P04626). Briefly: Navigating the Kinome. Panel member name: ERBB2. Type of assay: functional.
Sequence of Receptor tyrosine-protein kinase erbB-2 (P04626 whole entry): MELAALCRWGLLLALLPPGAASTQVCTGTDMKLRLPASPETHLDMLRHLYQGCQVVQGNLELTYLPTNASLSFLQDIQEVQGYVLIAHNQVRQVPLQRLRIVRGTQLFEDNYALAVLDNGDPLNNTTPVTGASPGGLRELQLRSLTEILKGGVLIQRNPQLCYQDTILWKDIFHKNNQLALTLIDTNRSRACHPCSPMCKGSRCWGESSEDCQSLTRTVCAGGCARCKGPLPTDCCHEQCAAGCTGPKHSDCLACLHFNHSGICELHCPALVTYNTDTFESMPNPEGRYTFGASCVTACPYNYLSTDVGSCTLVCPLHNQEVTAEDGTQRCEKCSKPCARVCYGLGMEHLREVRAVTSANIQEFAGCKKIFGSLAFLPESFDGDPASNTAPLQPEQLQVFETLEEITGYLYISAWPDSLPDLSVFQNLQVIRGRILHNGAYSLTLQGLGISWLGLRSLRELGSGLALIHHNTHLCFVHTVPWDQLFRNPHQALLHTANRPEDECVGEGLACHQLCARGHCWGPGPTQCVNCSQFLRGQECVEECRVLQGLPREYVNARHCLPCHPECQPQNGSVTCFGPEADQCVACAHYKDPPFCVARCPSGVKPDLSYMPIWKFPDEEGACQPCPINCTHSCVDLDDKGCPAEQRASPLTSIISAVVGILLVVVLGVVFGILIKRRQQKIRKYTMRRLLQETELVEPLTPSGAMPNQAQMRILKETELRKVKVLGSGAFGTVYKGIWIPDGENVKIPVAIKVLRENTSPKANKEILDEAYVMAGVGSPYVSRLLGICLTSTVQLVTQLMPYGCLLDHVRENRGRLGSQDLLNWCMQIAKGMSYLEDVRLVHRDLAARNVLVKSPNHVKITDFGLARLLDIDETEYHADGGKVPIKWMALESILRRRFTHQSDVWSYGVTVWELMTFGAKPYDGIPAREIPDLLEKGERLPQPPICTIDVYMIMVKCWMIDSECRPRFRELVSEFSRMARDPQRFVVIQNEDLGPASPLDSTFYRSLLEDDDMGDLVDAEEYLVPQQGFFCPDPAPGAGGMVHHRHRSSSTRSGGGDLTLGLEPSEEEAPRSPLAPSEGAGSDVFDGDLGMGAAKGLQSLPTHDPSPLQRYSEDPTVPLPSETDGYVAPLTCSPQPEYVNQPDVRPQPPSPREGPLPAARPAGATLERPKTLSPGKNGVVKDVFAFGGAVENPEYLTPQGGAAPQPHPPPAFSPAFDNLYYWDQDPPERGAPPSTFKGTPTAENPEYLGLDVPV
Assay [6] addresses Protein kinase C iota type (Homo sapiens, UniProt P41743). Type of assay: functional.
Another assay concerns the target Focal adhesion kinase 1 (Homo sapiens, UniProt Q05397). Format: functional.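 Note: measured as one member of a kinome panel.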
The target of assay [7] is Tyrosine-protein kinase Fer (Homo sapiens, UniProt P16591). Type of assay: functional.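 Note: FER tested as one member of a kinome panel.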
Sequence of Tyrosine-protein kinase Fer (P16591 whole entry): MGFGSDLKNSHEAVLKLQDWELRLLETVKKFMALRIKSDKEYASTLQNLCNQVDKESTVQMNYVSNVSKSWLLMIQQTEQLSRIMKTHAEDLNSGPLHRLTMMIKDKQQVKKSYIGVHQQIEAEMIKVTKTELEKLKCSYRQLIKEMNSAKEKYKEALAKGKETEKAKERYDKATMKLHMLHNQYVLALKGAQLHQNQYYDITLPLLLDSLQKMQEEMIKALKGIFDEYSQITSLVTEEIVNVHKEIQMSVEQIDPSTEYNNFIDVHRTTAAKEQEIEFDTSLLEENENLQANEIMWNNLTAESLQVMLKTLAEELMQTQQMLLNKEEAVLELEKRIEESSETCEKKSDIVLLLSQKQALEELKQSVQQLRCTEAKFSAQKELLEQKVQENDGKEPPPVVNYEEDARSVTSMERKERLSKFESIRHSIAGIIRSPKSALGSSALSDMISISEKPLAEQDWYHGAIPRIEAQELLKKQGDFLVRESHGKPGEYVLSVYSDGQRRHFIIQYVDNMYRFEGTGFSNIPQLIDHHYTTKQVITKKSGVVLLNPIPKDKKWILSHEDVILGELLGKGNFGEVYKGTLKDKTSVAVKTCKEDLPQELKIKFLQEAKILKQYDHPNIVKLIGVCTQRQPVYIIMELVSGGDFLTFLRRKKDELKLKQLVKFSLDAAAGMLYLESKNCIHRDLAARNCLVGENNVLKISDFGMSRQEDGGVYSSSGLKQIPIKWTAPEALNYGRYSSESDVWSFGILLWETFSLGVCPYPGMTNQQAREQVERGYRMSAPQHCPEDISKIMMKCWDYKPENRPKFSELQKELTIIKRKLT
Assay [8] concerns the target Homeodomain-interacting protein kinase 4 (Homo sapiens, UniProt Q8NE63). Type of assay: functional.
The target of assay [9] is Lymphokine-activated killer T-cell-originated protein kinase (Homo sapiens, UniProt Q96KB5). Format: functional.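 Note: value comes from a kinase panel screen in which TOPK was one of the panel members.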
Sequence of Lymphokine-activated killer T-cell-originated protein kinase (Q96KB5 whole entry): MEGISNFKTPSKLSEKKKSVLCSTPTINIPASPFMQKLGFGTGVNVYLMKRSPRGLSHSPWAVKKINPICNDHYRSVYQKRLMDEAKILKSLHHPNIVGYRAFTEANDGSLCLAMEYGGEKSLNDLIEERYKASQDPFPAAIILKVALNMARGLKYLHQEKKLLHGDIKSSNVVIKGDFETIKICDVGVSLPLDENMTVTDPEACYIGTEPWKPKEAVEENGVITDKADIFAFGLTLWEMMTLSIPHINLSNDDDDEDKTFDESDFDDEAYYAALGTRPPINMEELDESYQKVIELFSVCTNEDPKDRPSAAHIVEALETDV
Assay [10] addresses Inhibitor of nuclear factor kappa-B kinase subunit epsilon (Homo sapiens, UniProt Q14164). Put plainly: Navigating the Kinome. Panel member name: IKBKE. Format: functional.
For the next assay, the target named is Bcl-2-like protein 1 (Homo sapiens, UniProt Q07817). Briefly: BCL-XL inhibitors, dose response, selectivity assay for MCL1 inhibitor project, biochemical, fluorescence polarization, 1536-well (AID 2218).
Assay [11] deals with T1, Apoptotic protease-activating factor 1 (Homo sapiens, UniProt O14727).
T1 sequence (O14727 whole entry): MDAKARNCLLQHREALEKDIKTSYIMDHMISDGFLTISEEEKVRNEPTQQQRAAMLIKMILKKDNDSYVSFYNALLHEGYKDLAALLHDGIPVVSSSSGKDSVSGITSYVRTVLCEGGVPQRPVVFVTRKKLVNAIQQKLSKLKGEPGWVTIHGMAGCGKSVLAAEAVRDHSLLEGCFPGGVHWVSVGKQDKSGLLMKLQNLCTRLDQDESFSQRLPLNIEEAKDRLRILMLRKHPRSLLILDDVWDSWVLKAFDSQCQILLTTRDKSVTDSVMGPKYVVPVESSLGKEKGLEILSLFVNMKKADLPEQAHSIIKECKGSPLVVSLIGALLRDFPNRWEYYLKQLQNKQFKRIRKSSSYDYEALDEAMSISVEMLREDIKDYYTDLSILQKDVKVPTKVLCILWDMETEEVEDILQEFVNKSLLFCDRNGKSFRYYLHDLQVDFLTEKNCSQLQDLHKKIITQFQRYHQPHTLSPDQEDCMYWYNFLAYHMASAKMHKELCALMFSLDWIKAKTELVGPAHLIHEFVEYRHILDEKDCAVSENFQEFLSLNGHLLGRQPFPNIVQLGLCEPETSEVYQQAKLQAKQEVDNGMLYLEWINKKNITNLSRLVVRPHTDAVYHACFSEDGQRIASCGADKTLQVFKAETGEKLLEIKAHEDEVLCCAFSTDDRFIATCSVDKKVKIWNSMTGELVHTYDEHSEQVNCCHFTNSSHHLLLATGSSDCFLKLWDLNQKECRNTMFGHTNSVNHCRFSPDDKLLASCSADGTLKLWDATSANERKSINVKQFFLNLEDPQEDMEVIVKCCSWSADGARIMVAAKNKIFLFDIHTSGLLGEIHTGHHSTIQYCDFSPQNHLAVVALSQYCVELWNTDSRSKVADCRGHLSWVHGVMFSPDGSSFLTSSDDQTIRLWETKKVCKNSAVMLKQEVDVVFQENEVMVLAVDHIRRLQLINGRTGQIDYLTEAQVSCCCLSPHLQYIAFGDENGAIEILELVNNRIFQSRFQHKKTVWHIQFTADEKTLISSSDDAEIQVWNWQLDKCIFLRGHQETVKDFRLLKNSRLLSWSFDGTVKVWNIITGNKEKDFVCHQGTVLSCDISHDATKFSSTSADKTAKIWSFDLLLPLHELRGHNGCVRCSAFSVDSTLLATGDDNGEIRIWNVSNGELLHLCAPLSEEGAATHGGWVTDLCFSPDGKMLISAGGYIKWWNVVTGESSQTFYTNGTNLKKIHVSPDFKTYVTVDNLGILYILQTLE
Type of assay: functional.

A further assay has as its target SUMO-activating enzyme (Homo sapiens, UniProt Q9UBT2). Put plainly: inhibitors of in vitro SUMOylation cascade, primary screen, biochemical, HTRF, uHTS (AID 2006). Format: protein-complex assay. Background: TR-FRET usually uses a lanthanide donor and a delayed reading to cut background.
The target in assay [12] is Sphingosine 1-phosphate receptor 2 (Homo sapiens, UniProt O95136). Briefly: Dose Response Cell Based Assay for Agonists of the S1P2 Receptor. [Related pubchem assays: 729, 736, 843 ]. Type of assay: functional.
Sequence of Sphingosine 1-phosphate receptor 2 (O95136 whole entry): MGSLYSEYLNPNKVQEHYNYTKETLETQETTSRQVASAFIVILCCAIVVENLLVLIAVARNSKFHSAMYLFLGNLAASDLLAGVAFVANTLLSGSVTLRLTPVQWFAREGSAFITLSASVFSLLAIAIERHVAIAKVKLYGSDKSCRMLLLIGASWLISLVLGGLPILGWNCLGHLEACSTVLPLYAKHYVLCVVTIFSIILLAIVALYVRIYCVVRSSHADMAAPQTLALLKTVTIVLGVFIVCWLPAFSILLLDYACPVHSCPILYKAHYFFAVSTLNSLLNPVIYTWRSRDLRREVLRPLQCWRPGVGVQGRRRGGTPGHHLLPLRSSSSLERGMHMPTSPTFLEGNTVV
The target in assay [13] is Intestinal-type alkaline phosphatase (Homo sapiens, UniProt P09923). Briefly: Dose Response confirmation of uHTS hits from a small molecule inhibitors of human intestinal alkaline phosphatase via a luminescent assay. [Related pubchem assays (depositor defined):AID2544, AID2574]. Format: functional.
For assay [14], the target named is T2, Alkaline phosphatase, tissue-nonspecific isozyme (Homo sapiens, UniProt P05186).
T2 sequence (P05186 whole entry): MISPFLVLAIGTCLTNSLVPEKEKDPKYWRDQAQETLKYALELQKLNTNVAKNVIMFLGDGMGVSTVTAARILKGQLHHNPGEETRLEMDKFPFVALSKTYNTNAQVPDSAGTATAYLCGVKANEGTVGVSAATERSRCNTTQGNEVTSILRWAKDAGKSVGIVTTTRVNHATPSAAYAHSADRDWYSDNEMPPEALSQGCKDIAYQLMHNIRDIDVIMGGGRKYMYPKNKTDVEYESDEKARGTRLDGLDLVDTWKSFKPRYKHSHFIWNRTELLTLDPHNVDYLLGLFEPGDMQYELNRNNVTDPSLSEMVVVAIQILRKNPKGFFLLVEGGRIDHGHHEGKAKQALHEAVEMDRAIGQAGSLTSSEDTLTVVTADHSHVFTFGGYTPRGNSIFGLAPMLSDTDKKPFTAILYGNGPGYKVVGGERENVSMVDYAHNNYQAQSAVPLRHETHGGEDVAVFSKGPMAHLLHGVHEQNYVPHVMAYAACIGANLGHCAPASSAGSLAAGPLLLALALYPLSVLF
Put plainly: inhibition of tissue-nonspecific alkaline phosphatase – biochemical, dose response (AID 488882). Format: functional.

The record followed here is ChEMBL document CHEMBL1201862, “PubChem BioAssay data set” (2004).

Where a name gives a salt, the structure may show the parent alone. The source made the active and inactive calls.

Sequence of Homeodomain-interacting protein kinase 4 (Q8NE63 whole entry): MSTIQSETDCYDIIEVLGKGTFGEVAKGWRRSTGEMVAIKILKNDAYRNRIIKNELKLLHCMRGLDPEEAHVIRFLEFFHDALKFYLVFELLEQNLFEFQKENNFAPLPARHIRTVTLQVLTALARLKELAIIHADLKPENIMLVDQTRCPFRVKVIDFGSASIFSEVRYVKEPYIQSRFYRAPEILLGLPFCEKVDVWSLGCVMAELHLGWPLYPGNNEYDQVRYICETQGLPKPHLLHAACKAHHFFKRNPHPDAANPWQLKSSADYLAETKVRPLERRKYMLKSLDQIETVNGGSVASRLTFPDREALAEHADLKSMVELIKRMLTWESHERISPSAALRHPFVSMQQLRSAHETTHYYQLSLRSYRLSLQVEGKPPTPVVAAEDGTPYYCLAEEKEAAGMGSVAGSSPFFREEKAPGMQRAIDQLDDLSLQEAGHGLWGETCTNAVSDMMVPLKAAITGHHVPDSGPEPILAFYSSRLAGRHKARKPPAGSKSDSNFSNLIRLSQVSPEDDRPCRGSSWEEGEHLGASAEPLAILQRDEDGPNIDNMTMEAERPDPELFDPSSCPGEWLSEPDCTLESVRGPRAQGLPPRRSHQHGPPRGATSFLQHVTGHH
Sequence of Calcium/calmodulin-dependent protein kinase type II subunit gamma (Q13555 whole entry): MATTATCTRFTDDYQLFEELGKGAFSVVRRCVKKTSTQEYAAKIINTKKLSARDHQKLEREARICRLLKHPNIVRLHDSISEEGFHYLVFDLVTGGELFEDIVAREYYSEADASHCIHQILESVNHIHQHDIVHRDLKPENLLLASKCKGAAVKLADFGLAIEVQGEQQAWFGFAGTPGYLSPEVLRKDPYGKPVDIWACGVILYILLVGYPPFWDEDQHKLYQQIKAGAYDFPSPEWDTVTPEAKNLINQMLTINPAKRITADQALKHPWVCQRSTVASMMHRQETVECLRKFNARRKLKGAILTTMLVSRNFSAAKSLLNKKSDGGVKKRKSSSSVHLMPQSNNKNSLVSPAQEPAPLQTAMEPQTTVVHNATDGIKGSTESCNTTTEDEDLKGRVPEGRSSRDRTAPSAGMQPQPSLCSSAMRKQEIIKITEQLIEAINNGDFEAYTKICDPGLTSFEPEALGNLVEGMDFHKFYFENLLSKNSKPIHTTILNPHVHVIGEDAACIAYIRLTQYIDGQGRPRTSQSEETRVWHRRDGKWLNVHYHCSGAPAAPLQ
Sequence of Focal adhesion kinase 1 (Q05397 whole entry): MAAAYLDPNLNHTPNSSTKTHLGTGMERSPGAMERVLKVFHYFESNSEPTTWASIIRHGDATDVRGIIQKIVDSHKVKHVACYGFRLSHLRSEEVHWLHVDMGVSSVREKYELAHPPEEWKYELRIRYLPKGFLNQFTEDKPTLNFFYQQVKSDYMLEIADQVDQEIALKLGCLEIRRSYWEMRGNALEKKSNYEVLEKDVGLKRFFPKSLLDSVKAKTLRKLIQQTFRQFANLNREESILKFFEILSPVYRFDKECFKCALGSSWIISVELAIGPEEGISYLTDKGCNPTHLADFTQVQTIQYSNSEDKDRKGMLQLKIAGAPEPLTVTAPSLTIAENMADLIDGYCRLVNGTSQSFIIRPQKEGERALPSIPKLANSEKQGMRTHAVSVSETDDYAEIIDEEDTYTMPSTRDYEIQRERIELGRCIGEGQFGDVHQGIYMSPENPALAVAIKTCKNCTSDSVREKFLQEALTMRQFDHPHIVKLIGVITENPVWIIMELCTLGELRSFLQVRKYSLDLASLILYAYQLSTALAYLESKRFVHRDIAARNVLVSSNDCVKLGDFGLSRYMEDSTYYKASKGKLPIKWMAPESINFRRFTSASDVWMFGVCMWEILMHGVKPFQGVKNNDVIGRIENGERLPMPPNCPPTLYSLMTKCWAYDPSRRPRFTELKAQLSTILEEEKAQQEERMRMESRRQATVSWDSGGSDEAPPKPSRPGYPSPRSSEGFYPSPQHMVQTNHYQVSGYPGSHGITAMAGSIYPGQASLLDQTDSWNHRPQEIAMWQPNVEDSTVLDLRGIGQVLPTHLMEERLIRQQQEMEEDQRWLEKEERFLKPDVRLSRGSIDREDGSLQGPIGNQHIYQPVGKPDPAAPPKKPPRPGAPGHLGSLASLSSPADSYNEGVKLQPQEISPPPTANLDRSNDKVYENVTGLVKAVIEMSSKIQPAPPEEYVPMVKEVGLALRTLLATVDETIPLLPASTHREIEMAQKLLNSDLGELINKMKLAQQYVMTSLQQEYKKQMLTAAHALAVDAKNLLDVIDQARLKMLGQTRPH

One may read the Ki as a measure of affinity in units of concentration, obtained from inhibition or displacement. With `CN1CCN(c2nc(C3=C(c4c[nH]c5ccccc45)C(=O)NC3=O)c3ccccc3n2)CC1` [SOTRASTAURIN], the Ki was 0.794 µM (active) in assay [1]; > 1.58 µM (inactive) in assay [2]; 0.0794 µM (active) in assay [3]; > 1.58 µM (inactive) in assay [4]; 0.794 µM (active) in assay [5]; 0.398 µM (active) in assay [6]. The Ki is > 6.31 µM (inactive) at Focal adhesion kinase 1; 0.316 µM (active) in [7]; > 7.94 µM (inactive) in [8]; > 10 µM (inactive) in assay [9]; > 3.16 µM (inactive) in assay [10].
What is called IC50 is the midpoint of a concentration-inhibition curve. `CC[C@@H](CO)NC(=O)[C@@H]1C=C2c3cccc4c3c(cn4C)C[C@H]2N(C)C1` [METHYSERGIDE MALEATE]: on Bcl-2-like protein 1, the half-inhibitory concentration (IC50) is reported as 22.6 µM (not active).
Turning to `CCCCCCCCCCOC(=O)C[n+]1c(COc2ccc(C)cc2)n(C)c2ccccc21`, in assay [11], the IC50 was 10.8 µM (active).
One may read the EC50 as the concentration that produces a half-maximal response. Consider `CCC(C)n1c(NC(=O)c2ccccc2)c(C#N)c2nc3ccccc3nc21` (configuration not stated), for which the IC50 at SUMO-activating enzyme is 8.4 µM (active). In [12], the EC50 is 4.6 µM (active).
`CCN1/C(=C\c2ccc3ccccc3[n+]2CC)Sc2cc(C)ccc21`: the results for the IC50 in assay [13] and in assay [14] were 16.1 µM (inactive) and 28.6 µM (active), respectively.
